Data as given in US5104859A, “Continuous administration of adenosine to reduce pulmonary vascular resistance” (priority 1990, dated 1992).

Assays:
[1] = test system: systemic arterial blood pressure and central hemodynamics; test: Controlled hypotension in surgical patients without dipyridamole pretreatment; type: in vivo, human
Protocol: For this indication, adenosine typically is administered intravenously via the left basilic vein or via a central vein in an amount (or at a rate) sufficient to achieve the desired hypotensive effect.
The actual plasma levels of adenosine employed for controlled hypotension will vary, depending upon such factors as the particular patient, the age of the patient and the desired degree of hypotension. […] The hypotensive effect of adenosine was then studied upon this hypotensive dose of dipyridamole.
Subsequent to the tests described above, a 20 mM solution of adenosine in isotonic saline was administered to 50 surgical patients employing techniques similar to those described, except that pretreatment with dipyridamole was omitted.

[2] = test system: atrio-ventricular (A-V) node; settings: through blockage of the A-V node; cited from earlier work

SMILES: Nc1ncnc2c1ncn2[C@@H]1O[C@H](CO)[C@@H](O)[C@H]1O [adenosine]
- mean arterial blood pressure achieved ([1]; about 0.2 to about 0.35 mg/kg/min): 40 to 50 mm Hg
- mean arterial blood pressure achieved without significant side effects ([1]; as low as, cannula in left radial artery): 40 millimeters of mercury
- effective adenosine dose in man relative to dog ([1]; man 0.2 to 0.35 mg/kg/minute): 30 to 50 times lower
- heart block [2]: produce heart block
